Legend:
[1] = tested on: Acinetobacter calcoaceticus; assay: Antimicrobial activity against Acinetobacter calcoaceticus (GC 756); assay type: functional
[2] = Antimicrobial activity against Citrobacter freundii (GC 2211); assay type: functional
[3] = biological target: T1, Dipeptidase 1 (Sus scrofa) (UniProt P22412); assay: Relative hydrolysis to that of imipenem was determined by hog renal dehydropeptidase
T1 sequence (whole entry): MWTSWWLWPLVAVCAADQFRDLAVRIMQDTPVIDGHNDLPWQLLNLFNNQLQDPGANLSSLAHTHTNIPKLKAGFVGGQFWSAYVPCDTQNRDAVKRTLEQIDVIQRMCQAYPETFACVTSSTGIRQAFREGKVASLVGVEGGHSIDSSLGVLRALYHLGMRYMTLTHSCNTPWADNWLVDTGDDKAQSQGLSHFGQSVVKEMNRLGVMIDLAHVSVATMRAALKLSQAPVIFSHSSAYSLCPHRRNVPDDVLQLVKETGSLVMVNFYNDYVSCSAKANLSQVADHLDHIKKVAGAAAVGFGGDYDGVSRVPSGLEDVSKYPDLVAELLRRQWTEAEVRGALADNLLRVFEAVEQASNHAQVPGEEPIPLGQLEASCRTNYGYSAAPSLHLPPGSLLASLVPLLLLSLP

Enterococcus faecium = assay: The compound was evaluated for the antimicrobial activity against Enterococcus faecium (GC 1182); assay type: functional
Staphylococcus aureus [4] = assay: The compound was evaluated for the antimicrobial activity against methicillin - resistant Staphylococcus aureus (GC 2220); assay type: functional
[5] = Antimicrobial activity against Enterobacter cloacae (GC 2209); assay type: functional
Escherichia coli [6] = assay: Antimicrobial activity against Escherichia coli (ATCC 25922); assay type: functional
Escherichia coli [7] = assay: Antimicrobial activity against Escherichia coli (GC 1792); assay type: functional
Escherichia coli [8] = assay: Antimicrobial activity against Escherichia coli (GC 2205); assay type: functional
[9] = Antimicrobial activity against Morganella morganii (GC 2213); assay type: functional
Pseudomonas aeruginosa [10] = assay: Antimicrobial activity against Pseudomonas aeruginosa (ATCC 27853); assay type: functional
Pseudomonas aeruginosa [11] = assay: Antimicrobial activity against Pseudomonas aeruginosa (GC 1544 OprD); assay type: functional
Enterococcus faecalis = assay: The compound was evaluated for the antimicrobial activity against Enterococcus faecalis (GC 842); assay type: functional
Staphylococcus aureus [12] = assay: Antimicrobial activity against Staphylococcus aureus (ATCC 29213); assay type: functional
[13] = Antimicrobial activity against Xanthomonas maltophilia (GC 562); assay type: functional; settings: Stenotrophomonas maltophilia

CCN1CCN(C(=O)NC[C@H]2OCC[C@H]2SC2=C(C(=O)[O-])N3C(=O)[C@H]([C@@H](C)O)[C@H]3[C@H]2C)C(=O)C1=O.[Na+]
MIC [1]: 2 µg/mL | MIC [2]: 0.12 µg/mL | Relative hydrolysis [3]: 9 | MIC (Enterococcus faecium): > 128 µg/mL | MIC (Staphylococcus aureus [4]): 8 µg/mL | MIC [5]: ≤ 0.06 µg/mL | MIC (Escherichia coli [6]): ≤ 0.06 µg/mL | MIC (Escherichia coli [7]): ≤ 0.06 µg/mL | MIC (Escherichia coli [8]): ≤ 0.06 µg/mL | MIC [9]: 0.5 µg/mL | MIC (Pseudomonas aeruginosa [10]): 16 µg/mL | MIC (Pseudomonas aeruginosa [11]): 32 µg/mL | MIC (Enterococcus faecalis): 4 µg/mL | MIC (Staphylococcus aureus [12]): ≤ 0.06 µg/mL | MIC [13]: > 128 µg/mL
